{"source": "patent US8829054B1", "about": "“Ready-to-use co-solvents pharmaceutical composition in modified flexible plastic container” (Welgrace Research Group, priority 2013, dated 2014)", "origin": "cited, not measured here", "conditions": "published literature, Rosenberg et al. 1988", "data": [{"smiles": "COC(=O)CCc1ccc(OCC(O)CNC(C)C)cc1.Cl", "note": "(stereo not shown) [Esmolol, methyl3-[4-[2-hydroxy-3-(isopropylamino)propoxy]phenyl]propionate hydrochloride]", "values": [{"measurement": "activation energies for Esmolol decompositions", "result": "19 to 21.5", "unit": "kcal/mol"}]}]}
